# Measurements taken from patent US12195760B2, “Method for enhancing proliferation capability of stem cells using ethionamide” (SAMSUNG LIFE PUBLIC WELFARE FOUNDATION, priority 2016, dated 2025).
# Assays:
# [1] = system: human umbilical cord mesenchymal stem cells
# Procedure: After 72 hours, cell proliferation analysis was performed. For this purpose, a BrdU cell proliferation assay kit (Cell Signaling Technology, USA) using 5-bromo-2′-deoxyuridine (BrdU) bound during DNA synthesis in cells was used. Specifically, BrdU was added to cells, and reacted for 24 hours. Thereafter, the cells were immobilized, and DNA was denatured. Then, the cells were treated with an anti-BrdU antibody, and then reacted with a tetramethylbenzidine (TMB) substrate using a secondary antibody conjugated with horse-radish peroxidase (HRP), and an absorbance value was measured at 450 nm using an ELISA reader.
# [2] = system: human umbilical cord mesenchymal stem cells; conditions: ethionamide-primed MSCs compared to control not treated
# Procedure: More specifically, the human umbilical cord mesenchymal stem cells (2×10^5 cells) were equally divided into 1.5 ml microtubes, treated with 100 μL of phosphate-buffered saline (PBS) containing 2% FBS, treated with an antibody bound to fluorescein isothiocyanate (FITC), phycoerythrin (PE), or allophycocyanin (APC), and then reacted at room temperature for 20 minutes. […] After the reaction, an antibody reaction was neutralized with PBS containing 2% FBS, and it was then determined whether the positive and negative markers were expressed using a flow cytometer.
# [3] = system: human umbilical cord mesenchymal stem cells; conditions: ethionamide-primed MSCs compared to control not treated; Oil red O, Alizarin Red S, Safranin-O; FIGS. 3A to 3C
# Procedure: Specifically, to induce differentiation into adipocytes or osteocytes, human umbilical cord mesenchymal stem cells (1×10^5 cells) cultured in a medium treated with ethionamide were seeded in a 6-well plate, and the differentiation was induced for approximately 3 weeks using adipogenesis/osteogenesis differentiation kits (Gibco, USA) while replacing the medium with a fresh medium twice a week. Thereafter, the cells differentiated into adipocytes and osteocytes were stained with Oil red O and Alizarin Red S to check whether the cells were differentiated into adipocytes and osteocytes. Quantification of the adipocytes was carried out by completely removing the medium from differentiation culture containers, drying the culture containers, putting 100% isopropanol into the culture containers, culturing the cells at room temperature for 10 minutes, thoroughly mixing the differentiated cells with 100% isopropanol, and measuring an absorbance at 500 nm to quantify the degree of differentiation. Quantification of the osteocytes was carried out by quantifying the degree of differentiation using an Alizarin Red S staining quantification assay kit (ScienCell, USA). […]
smiles,measurement,setting,value
"CCc1cc(C(N)=S)ccn1 [ethionamide, 2-ethylpyridine-4-carbothioamide]",proliferation rate according to treatment time,"[1]; 10 uM or 100 uM ethionamide, treated for 72 hours, FIG. 1B",most significantly enhanced
same,proliferation rate of the cells according to treatment concentration,"[1]; ethionamide at a concentration of 50 uM or more (tested 1 to 500 μM), 72 hours, BrdU absorbance 450 nm, FIG. 1A",significantly enhanced
same,"expression of positive markers CD44, CD73, CD90, CD105, CD166",[2]; FIG. 2A,expressed at a similar level
same,"expression of negative markers CD11b, CD14, CD19, CD34, CD45, HLA-DR",[2]; FIG. 2B,not expressed at a level similar to the control
same,"differentiation into adipocytes, osteocytes, and chondrocytes",[3],well differentiated
